Measured values as given in PubChem BioAssay (NCI).
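How tested: cells in 96-well plates exposed to compound for 48 hours at five concentrations. TGI: total growth inhibition.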

How the values were obtained:
Experiment in all cases: DTP human tumour cell line panel, 48 h
[1] = system: 786-0 renal
[2] = system: A498 renal
[3] = system: A549 NSCLC
[4] = system: ACHN renal
[5] = system: BT-549 breast
[6] = system: CAKI-1 renal
[7] = system: CCRF-CEM leukemia
[8] = system: COLO 205 colon
[9] = system: DU-145 prostate
[10] = system: EKVX NSCLC
[11] = system: HCC-2998 colon
[12] = system: HCT-116 colon
[13] = system: HCT-15 colon
[14] = system: HL-60(TB) leukemia
[15] = system: HOP-62 NSCLC
[16] = system: HOP-92 NSCLC
[17] = system: HS 578T breast
[18] = system: HT29 colon
[19] = system: IGROV1 ovarian
[20] = system: K-562 leukemia
[21] = system: KM12 colon
[22] = system: LOX IMVI melanoma
[23] = system: M14 melanoma
[24] = system: MALME-3M melanoma
[25] = system: MCF7 breast
[26] = system: MDA-MB-231 breast
[27] = system: MDA-MB-435
[28] = system: MDA-N
[29] = system: MOLT-4 leukemia
[30] = system: NCI-H226 lung
[31] = system: NCI-H23 lung
[32] = system: NCI-H460 lung
[33] = system: NCI-H522 lung
[34] = system: OVCAR-3 ovarian
[35] = system: OVCAR-5 ovarian
[36] = system: OVCAR-8 ovarian
[37] = system: PC-3 prostate
[38] = system: RPMI-8226 leukemia
[39] = system: RXF 393 renal
[40] = system: SF-268 CNS
[41] = system: SF-295 CNS
[42] = system: SF-539 CNS
[43] = system: SK-MEL-2 melanoma
[44] = system: SK-MEL-28 melanoma
[45] = system: SK-MEL-5 melanoma
[46] = system: SK-OV-3 ovarian
[47] = system: SN12C renal
[48] = system: SNB-19 CNS
[49] = system: SNB-75 CNS
[50] = system: SR leukemia
[51] = system: SW-620 colon
[52] = system: T-47D breast
[53] = system: TK-10 renal
[54] = system: U251 CNS
[55] = system: UACC-257 melanoma
[56] = system: UACC-62 melanoma
[57] = system: UO-31 renal
[58] = system: NCI/ADR-RES ovarian
[59] = system: OVCAR-4 ovarian

Measured: TGI

COc1cccc(C(NC2=NCCC=N2)c2cc3c(cc2O)OCO3)c1O (configuration not stated)
32.8 µM: [7]
62.5 µM: [12]
40.6 µM: [20]
79.7 µM: [17]
93.8 µM: [49]
77.5 µM: [16]
25.4 µM: [36]
46.9 µM: [11]
35.3 µM: [25]
23.3 µM: [14]
27.7 µM: [13]
46.8 µM: [42]
50 µM: [38]
63.5 µM: [52]
34.9 µM: [50]
41.8 µM: [51]
63 µM: [29] | [39]
59 µM: [56]
88.8 µM: [27]
78.8 µM: [2]
59.9 µM: [26]
55.5 µM: [15]
31.9 µM: [54]
41.4 µM: [47]
59.7 µM: [34]
25.6 µM: [1]
33.3 µM: [5]
72.5 µM: [43]
40.2 µM: [33]
41.2 µM: [22]
not listed: [58] | [59]
> 100 µM: all other assays above

CN1CCC/C1=C1/C(=O)N(c2ccccc2)N=C1c1ccc[nH]1
not listed: [16] | [18] | [42] | [46]
> 100 µM: all other assays above
